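Protocol summary: plate cells (96-well), add compound at 5 concentrations, incubate 48 h, interpolate endpoints linearly. Abbreviation: GI50, concentration required for 50% inhibition of growth.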 Activity calls are given as the source filed them. Rule as the data show it: active = GI50 up to about 1.1 µM and inactive = higher.
Assays:
Experiment in all cases: NCI anticancer screen, dose series, 48 h
M14 = test system: M14
ACHN = test system: ACHN
A549 = test system: A549
MDA-N = test system: MDA-N
T47D = test system: T47D
IGROV-1 = test system: IGROV-1
RXF 393 = test system: RXF 393
TK-10 = test system: TK-10
K562 = test system: K562
Malme-3M = test system: Malme-3M
HCT-116 = test system: HCT-116
CAKI-1 = test system: CAKI-1
OVCAR-8 = test system: OVCAR-8
DU-145 = test system: DU-145
U-251 = test system: U-251
SF-539 = test system: SF-539
SK-OV-3 = test system: SK-OV-3
COLO 205 = test system: COLO 205

SMILES	GI50 (M14)	GI50 (ACHN)	GI50 (A549)	GI50 (MDA-N)	GI50 (T47D)	GI50 (IGROV-1)	GI50 (RXF 393)	GI50 (TK-10)	GI50 (K562)	GI50 (Malme-3M)	GI50 (HCT-116)	GI50 (CAKI-1)	GI50 (OVCAR-8)	GI50 (DU-145)	GI50 (U-251)	GI50 (SF-539)	GI50 (SK-OV-3)	GI50 (COLO 205)
NC(=O)c1csc(-c2ccc(CO)o2)n1	> 100 µM (inactive)	> 100 µM (inactive)	> 100 µM (inactive)	> 100 µM (inactive)	> 100 µM (inactive)	> 100 µM (inactive)	> 100 µM (inactive)	> 100 µM (inactive)	> 100 µM (inactive)	> 100 µM (inactive)	> 100 µM (inactive)	> 100 µM (inactive)	> 100 µM (inactive)	> 100 µM (inactive)	> 100 µM (inactive)	> 100 µM (inactive)	> 100 µM (inactive)	> 100 µM (inactive)
Cc1cc([N+](=O)[O-])c(C)c(Br)c1C	> 100 µM (inactive)	> 100 µM (inactive)	> 100 µM (inactive)	> 100 µM (inactive)	71 µM (inactive)	> 100 µM (inactive)	60.5 µM (inactive)	> 100 µM (inactive)	> 100 µM (inactive)	> 100 µM (inactive)	> 100 µM (inactive)	> 100 µM (inactive)	> 100 µM (inactive)	> 100 µM (inactive)	> 100 µM (inactive)	> 100 µM (inactive)	> 100 µM (inactive)	> 100 µM (inactive)
CCCCCCCC(CC(=O)NC(CO)C(=O)NC(CO)CC(C)C)OC(=O)CC(CCCCCCC)OC(=O)CC(CCCCCCC)OC1OC(C)C(O)C(OC2OC(C)C(O)C(OC(C)=O)C2O)C1O (stereo not given)	10.7 µM (inactive)	17.2 µM (inactive)	12.5 µM (inactive)	5.41 µM (inactive)	12.9 µM (inactive)	12.3 µM (inactive)	8.34 µM (inactive)	15.6 µM (inactive)	12.4 µM (inactive)	16 µM (inactive)	13.1 µM (inactive)	15.7 µM (inactive)	13.9 µM (inactive)	10.4 µM (inactive)	4.2 µM (inactive)	12.1 µM (inactive)	17 µM (inactive)	5.86 µM (inactive)
Clc1nc(Cl)nc(NC23CC4CC(CC(C4)C2)C3)n1	18 µM (inactive)	35.3 µM (inactive)	20 µM (inactive)	17.4 µM (inactive)	17.2 µM (inactive)	13.7 µM (inactive)	16.7 µM (inactive)	17.7 µM (inactive)	13.7 µM (inactive)	16.2 µM (inactive)	17.1 µM (inactive)	8.09 µM (inactive)	18.1 µM (inactive)	16.7 µM (inactive)	15.5 µM (inactive)	17.5 µM (inactive)	32.3 µM (inactive)	17.5 µM (inactive)
COc1cc(OC)c(/C=N\Nc2nc3ccccc3c(=O)n2-c2ccccc2)c(OC)c1	27.3 µM (inactive)	18.1 µM (inactive)	31.4 µM (inactive)	17.4 µM (inactive)	24.6 µM (inactive)	40.6 µM (inactive)	23.7 µM (inactive)	34.1 µM (inactive)	33 µM (inactive)	28.1 µM (inactive)	20.1 µM (inactive)	16 µM (inactive)	28.7 µM (inactive)	31.3 µM (inactive)	32.1 µM (inactive)	18 µM (inactive)	24.9 µM (inactive)	45.3 µM (inactive)
COc1ccc(/C=C(/c2ccccc2)c2c(C)cc(C)c(/C(=C\c3ccc(OC)cc3)c3ccccc3)c2/N=N/c2cc(C)cc(C)c2)cc1	44.6 µM (inactive)	> 56.5 µM (inactive)	14.6 µM (inactive)	24 µM (inactive)	4.9 µM (inactive)	14.4 µM (inactive)	32.3 µM (inactive)	21.9 µM (inactive)	11.7 µM (inactive)	17.9 µM (inactive)	10 µM (inactive)	> 88.1 µM (inactive)	17.9 µM (inactive)	25.6 µM (inactive)	7.33 µM (inactive)	42.1 µM (inactive)	41 µM (inactive)	8.04 µM (inactive)
C(=N\NC1=NCCN1)/c1cccc2cc3ccncc3nc12	12.6 µM (inactive)	2.84 µM (inactive)	6.76 µM (inactive)	2.89 µM (inactive)	2.14 µM (inactive)	3.24 µM (inactive)	2.77 µM (inactive)	10.4 µM (inactive)	1.36 µM (inactive)	10.6 µM (inactive)	1.57 µM (inactive)	2.84 µM (inactive)	1.93 µM (inactive)	7.23 µM (inactive)	1.94 µM (inactive)	5.85 µM (inactive)	11.3 µM (inactive)	1.21 µM (inactive)
CC(/C=N\NC(=S)N(C)C)=N/NC(=S)N(C)C	0.393 µM (active)	0.113 µM (active)	0.142 µM (active)	8.93 µM (inactive)	0.0935 µM (active)	0.575 µM (active)	0.586 µM (active)	0.507 µM (active)	0.582 µM (active)	0.995 µM (active)	0.117 µM (active)	0.815 µM (active)	0.308 µM (active)	0.195 µM (active)	0.29 µM (active)	0.74 µM (active)	0.484 µM (active)	0.497 µM (active)
O=C(O)CCCN/C(=C1\C(=O)C(=O)N(c2ccccc2)C1=O)c1ccccc1	> 100 µM (inactive)	> 100 µM (inactive)	> 100 µM (inactive)	> 100 µM (inactive)	> 100 µM (inactive)	> 100 µM (inactive)	> 100 µM (inactive)	> 100 µM (inactive)	> 100 µM (inactive)	> 100 µM (inactive)	> 100 µM (inactive)	> 100 µM (inactive)	> 100 µM (inactive)	> 100 µM (inactive)	> 100 µM (inactive)	82 µM (inactive)	> 100 µM (inactive)	> 100 µM (inactive)
CCC(C)(C)C1CCC2c3c([nH]c4ccccc34)C3C(=O)N(c4ccc(OC)cc4)C(=O)C3C2C1 (stereo not given)	18.8 µM (inactive)	11.2 µM (inactive)	13.4 µM (inactive)	18.7 µM (inactive)	6.55 µM (inactive)	15.7 µM (inactive)	20.4 µM (inactive)	16.7 µM (inactive)	5.16 µM (inactive)	19.4 µM (inactive)	9.08 µM (inactive)	10.4 µM (inactive)	12.9 µM (inactive)	5.4 µM (inactive)	11.5 µM (inactive)	12.4 µM (inactive)	31.9 µM (inactive)	10.3 µM (inactive)
CC/C=C/C(/C=C/C[C@]1(CC)C[C@H](CC)[C@H](CC(=O)O)OO1)CC (stereo not given in full)	8.49 µM (inactive)	1.91 µM (inactive)	1.68 µM (inactive)	1.85 µM (inactive)	2.75 µM (inactive)	0.353 µM (active)	2.19 µM (inactive)	1.91 µM (inactive)	3.04 µM (inactive)	12.4 µM (inactive)	2.46 µM (inactive)	1.96 µM (inactive)	2.9 µM (inactive)	1.85 µM (inactive)	1.62 µM (inactive)	1.82 µM (inactive)	4.23 µM (inactive)	1.78 µM (inactive)
C=CC1(CC[C@]2(c3ccc(OC)c(OC)c3)C=[N+]([O-])O[C@H](O[C@@H]3CCCC[C@H]3C(C)(C)c3ccccc3)C2)OCC(C)(C)CO1	16.3 µM (inactive)	16 µM (inactive)	14.6 µM (inactive)	6.11 µM (inactive)	11.6 µM (inactive)	6.82 µM (inactive)	12.4 µM (inactive)	25.4 µM (inactive)	8.17 µM (inactive)	7.26 µM (inactive)	5.57 µM (inactive)	6.95 µM (inactive)	7.64 µM (inactive)	13.9 µM (inactive)	20 µM (inactive)	14.8 µM (inactive)	> 44.1 µM (inactive)	16.9 µM (inactive)
CCOC(=O)c1cc(-n2nnc3ccccc32)cn1C	> 10 µM (inactive)	> 10 µM (inactive)	> 10 µM (inactive)	> 10 µM (inactive)	> 10 µM (inactive)	> 10 µM (inactive)	> 10 µM (inactive)	> 10 µM (inactive)	> 10 µM (inactive)	> 10 µM (inactive)	> 10 µM (inactive)	> 10 µM (inactive)	> 10 µM (inactive)	> 10 µM (inactive)	> 10 µM (inactive)	> 10 µM (inactive)	> 10 µM (inactive)	> 10 µM (inactive)
O=c1[nH]nc(Cc2ccccc2)n1/N=C/c1ccccc1O	> 100 µM (inactive)	> 100 µM (inactive)	> 100 µM (inactive)	> 100 µM (inactive)	> 100 µM (inactive)	83.8 µM (inactive)	23.4 µM (inactive)	> 100 µM (inactive)	> 100 µM (inactive)	> 100 µM (inactive)	> 100 µM (inactive)	> 100 µM (inactive)	40.1 µM (inactive)	> 100 µM (inactive)	45 µM (inactive)	> 100 µM (inactive)	> 100 µM (inactive)	> 100 µM (inactive)
COc1cc2cc(C(=O)N3CC(CCl)c4c3cc([N+](=O)[O-])c3ccccc43)[nH]c2c(OC)c1OC (stereo not given)	46.6 µM (inactive)	11.2 µM (inactive)	1.8 µM (inactive)	> 100 µM (inactive)	> 66.8 µM (inactive)	33 µM (inactive)	> 89.3 µM (inactive)	> 100 µM (inactive)	15.3 µM (inactive)	68.1 µM (inactive)	27 µM (inactive)	39.4 µM (inactive)	12.8 µM (inactive)	12.5 µM (inactive)	25.8 µM (inactive)	25.8 µM (inactive)	> 48.5 µM (inactive)	> 76 µM (inactive)

Reference: ChEMBL document CHEMBL1201862, “PubChem BioAssay data set” (2004)
